PMC12929930, “Conformational Trajectory of the Molecular Chameleon Grazoprevir From Formulation to Target‐Bound” (Chemistry (Weinheim an Der Bergstrasse, Germany), 2025)
Like-named read-outs stand apart in the source and are kept apart here.

Tests used:
[1] = cited from earlier work; for SA 3D PSA variation between solution conformations / spread in Rgyr for the solution ensembles: solution ensembles
Source text: Grazoprevir (Figure 1a) is a second‐generation hepatitis C virus (HCV) nonstructural 3/4A (NS3/NS4A) protease inhibitor developed by Merck in 2012 and approved by the FDA in 2016 as part of an orally administered combination therapy with elbasvir. Like most NS3/NS4A protease inhibitors, grazoprevir is orally available despite its limited water solubility (Table S21). The potential chameleonicity of grazoprevir has not yet been structurally characterized. Determining the structures of bRo5 inhibitors like grazoprevir in various states is crucial for understanding their chame ... || For bRo5‐drugs, 3D descriptors such as the R gyr as a measure of size instead of molecular weight, and the SA 3D PSA instead of the number of hydrogen bond donors and acceptors, often provide a better view to explain their aqueous solubility and membrane permeability. Even though the exact values of the R gyr and SA 3D PSA for a single conformation might not be informative, they can give a perspective when compared for conformations between solvents or between similar compounds [6, 23]. In solution the SA 3D PSA varies by 79 Å^2 (Supporting information Figure S13) between the c ...

[2] = assay type: physicochemical; conditions: pH 7.4
Source text: (§1) Solubility and Cell permeability
(§2) The thermodynamic aqueous solubility, LogD and cell permeability across MCDCK cell monolayers
(§3) Table S21. MCDCK permeability data and efflux ratios (ERs) for grazoprevir.
Solubility LogD7.4[b] PappAB (x10-6 ER[d] […]
[b] Determined using a miniaturized shake-flask procedure. Values are means from three repeats. […]

[3] = tested on: MCDCK cell monolayers; assay type: in vitro ADME
Source text: as §1, §2, §3
(§4) Solubility LogD7.4[b] PappAB (x10-6 ER[d]
[a] Determined in aqueous potassium phosphate buffer at pH 7.4. Values are means ± std from three repeats.
[b] Determined using a miniaturized shake-flask procedure. Values are means from three repeats.
[c] Papp AB: permeability in the apical-to-basolateral (AB) direction across MCDCK cell monolayers. Values are
means + std from three repeats.
[d] ER: efflux ratio (Papp BA/Papp AB).

[4] = assay type: physicochemical; conditions: pH 7.4; remark: listed apart in the source
Source text: as §1, §2, §3, §4
[a] Determined in aqueous potassium phosphate buffer at pH 7.4. Values are means ± std from three repeats. […]

[5] = tested on: MCDCK cell monolayers; conditions: comparison value quoted in Conclusions; not in the printed Table S21; cited from earlier work
Source text: This study presents a comprehensive analysis of a macrocyclic drug's conformational journey by experimental means; from the solid state, through solution environments, to the target‐bound state. […] By determining solution‐state ensembles of grazoprevir in both polar and apolar environments—mimicking extracellular and membrane‐like conditions—and comparing these to previously repo ...

[6] = conformations assessed computationally

In the case of `C=C[C@@H]1C[C@]1(NC(=O)[C@@H]1C[C@@H](Oc2ncc(OC)c3ccc(Cl)cc23)CN1C(=O)[C@@H](NC(=O)OC(C)(C)C)C(C)(C)C)C(=O)NS(=O)(=O)C1CC1` [asunaprevir], the “SA 3D PSA variation between solution conformations” value [1] is listed as 88 Å^2 and the “spread in Rgyr for the solution ensembles” value [1] is listed as 1.22 Å.

With `C=C[C@@H]1C[C@]1(NC(=O)[C@@H]1C[C@@H]2CN1C(=O)[C@H](C(C)(C)C)NC(=O)O[C@@H]1C[C@H]1CCCCCc1nc3ccc(OC)cc3nc1O2)C(=O)NS(=O)(=O)C1CC1.O` [grazoprevir, Grazoprevir] the LogD7.4 [2] was 3.4, the “ER (efflux ratio, Papp BA/Papp AB)” value [3] was 3.1 and the PappAB [3] was 5.9 ± 0.89 x10-6 cm/s. The passive membrane permeability [3] was 5.9 ×10⁻⁶ cm/s and the Solubility [4] was 12.9 ± 2.6 µM.

In the case of `Cc1cnc(C(=O)N[C@H]2CCCCC/C=C\[C@@H]3C[C@@]3(C(=O)NS(=O)(=O)C3CC3)NC(=O)[C@@H]3C[C@@H](Oc4nc5ccccc5c5ccccc45)CN3C2=O)cn1` [paritaprevir], the “Rgyr range for the solution conformations (polar-to-apolar span)” value [1, 6] is given as 0.36 Å and the “SA 3D PSA polar-to-apolar span” value [1, 6] is given as 76 Å^2.

For `COc1ccc2c(O[C@@H]3C[C@H]4C(=O)N[C@]5(C(=O)NS(=O)(=O)C6CC6)C[C@H]5/C=C\CCCCN(C)C(=O)[C@@H]4C3)cc(-c3nc(C(C)C)cs3)nc2c1C` [simeprevir], the “SA 3D PSA variation between solution conformations” value [1] is given as 72 Å^2, the “spread in Rgyr for the solution ensembles” value [1] is given as 1.11 Å and the passive membrane permeability [5] is given as 0.5 ×10⁻⁶ cm/s.
